Measured values published in patent US12371691B2, “Nano complex for targeted repairing of neurovascular lesion, and preparation and use thereof” (SHANGHAI JIAOTONG UNIVERSITY SCHOOL OF MEDICINE, priority 2019, dated 2025).
“Also recorded” adds a separate entry of the source. No end group written: not given here.

Legend:
[1] = test system: cerebral vessels of AD model mice; assay: Comparison of vascular binding capacity, two-photon imaging of brain after tail vein administration; assay type: in vivo, mouse; details: DiI-labeled nano complexes modified with the targeted peptide, 3 hours, FIG. 4
Procedure: The AD model animal mice were administered via tail veins with the above-mentioned red fluorescence-labeled nano complexes modified with targeted peptides (containing 8 bridge structure peptides), and were sacrificed 3 hours later. The mice were perfused with normal saline until the blood was not red, and the brain thereof was taken and photographed by a two-photon microscope. The nano complexes bound on cerebral vessels were imaged, and Image J image analysis software was used to analyze the fluorescence intensity of the red fluorescence-labeled nano complexes bound on the cerebral vessels.

[2] = test system: Mouse-derived cerebrovascular endothelial cells bEnd3 cells; assay: High-content quantitative analysis of cellular uptake of red fluorescence-labeled nano complexes; assay type: cell-based; details: DiI-labeled nano complexes modified with the targeted peptide, 5 μg/mL by lipid mass, 6 h; FIG. 3
Procedure: High-content quantitative analysis was performed to determine cellular uptake of each of the above-mentioned nano complexes. Mouse-derived cerebrovascular endothelial cells bEnd3 cells were seeded in a 96-well plate at a density of 5000/well and cultured for 24 h. The original culture solution was aspirated and discarded, and 100 μL of the above-mentioned 8 red fluorescence-labeled nanostructure solutions (5 μg/mL, calculated by lipid mass) were added, respectively; the mixture was incubated in a cell incubator for 6 h, then fixed with 3.7% formaldehyde at 37° C. for 10 min, nuclear stained with Hoechest for 10 min, washed three times with PBS, and then photographed and subjected to quantitative analysis with a high-content Target Activation procedure. […]
Moreover, a red fluorescence-labeled targeted nano complex was prepared as described in the method of Example 2. Cellular uptake of a targeted peptide-modified nano complex was subjected to high-content quantitative analysis. The cerebrovascular endothelial cells were treated with targeted peptide-modified nano complexes containing targeted peptides of different ratios (1500:1, 1000:1, 500:1, 250:1, 100:1, 30:1, 10:1, and 5:1, the molar ratio of the lipid to the targeted peptide); the mixture was incubated in a cell incubator for 6 h, then fixed, nuclear stained, and subjected to high-content quantitative analysis.

fluorescence intensity of nano complexes bound on cerebral vessels (bridge structure peptide screen) [1] | Substance | uptake of nano complex by cerebrovascular endothelial cells (bridge structure peptide screen) [2]
dominant targeted peptides | AC-Phe-Ala-Glu-Lys-Phe-Lys-Glu-Ala-Val-Lys-Asp-Tyr-Phe-Ala-Lys-Phe-Trp-Asp-Gly-Gly-Glu-Leu-Lys-Val-Leu-Met-Glu-Lys-Glu-Leu (Ac-FAEKFKEAVKDYFAKFWDGGELKVLMEKEL) [R1, targeted peptide with bridge Gly-Gly; tested as modifier of DiI-labeled nano complex] | good effect on uptake; also recorded: better uptake
dominant targeted peptides | AC-Phe-Ala-Glu-Lys-Phe-Lys-Glu-Ala-Val-Lys-Asp-Tyr-Phe-Ala-Lys-Phe-Trp-Asp-Gly-Ala-Gly-Ala-Glu-Leu-Lys-Val-Leu-Met-Glu-Lys-Glu-Leu (Ac-FAEKFKEAVKDYFAKFWDGAGAELKVLMEKEL) [R6, targeted peptide with bridge Gly-Ala-Gly-Ala; tested as modifier of DiI-labeled nano complex] | good effect on uptake; also recorded: better uptake
– | AC-Phe-Ala-Glu-Lys-Phe-Lys-Glu-Ala-Val-Lys-Asp-Tyr-Phe-Ala-Lys-Phe-Trp-Asp-Ile-Ala-Glu-Leu-Lys-Val-Leu-Met-Glu-Lys-Glu-Leu (Ac-FAEKFKEAVKDYFAKFWDIAELKVLMEKEL) [R2, targeted peptide with bridge Ile-Ala; tested as modifier of DiI-labeled nano complex] | good effect on uptake
dominant targeted peptides | AC-Phe-Ala-Glu-Lys-Phe-Lys-Glu-Ala-Val-Lys-Asp-Tyr-Phe-Ala-Lys-Phe-Trp-Asp-Ile-Ala-Ile-Glu-Leu-Lys-Val-Leu-Met-Glu-Lys-Glu-Leu (Ac-FAEKFKEAVKDYFAKFWDIAIELKVLMEKEL) [R5, targeted peptide with bridge Ile-Ala-Ile; tested as modifier of DiI-labeled nano complex] | good effect on uptake; also recorded: better uptake
– | AC-Phe-Ala-Glu-Lys-Phe-Lys-Glu-Ala-Val-Lys-Asp-Tyr-Phe-Ala-Lys-Phe-Trp-Asp-Ile-Gly-Glu-Leu-Lys-Val-Leu-Met-Glu-Lys-Glu-Leu (Ac-FAEKFKEAVKDYFAKFWDIGELKVLMEKEL) [R3, targeted peptide with bridge Ile-Gly; tested as modifier of DiI-labeled nano complex] | good effect on uptake
– | AC-Phe-Ala-Glu-Lys-Phe-Lys-Glu-Ala-Val-Lys-Asp-Tyr-Phe-Ala-Lys-Phe-Trp-Asp-Gly-Gly-Ser-Gly-Gly-Glu-Leu-Lys-Val-Leu-Met-Glu-Lys-Glu-Leu (Ac-FAEKFKEAVKDYFAKFWDGGSGGELKVLMEKEL) [R7, targeted peptide with bridge Gly-Gly-Ser-Gly-Gly; tested as modifier of DiI-labeled nano complex] | good effect on uptake
– | AC-Phe-Ala-Glu-Lys-Phe-Lys-Glu-Ala-Val-Lys-Asp-Tyr-Phe-Ala-Lys-Phe-Trp-Asp-Gly-Ser-Ser-Ser-Gly-Gly-Glu-Leu-Lys-Val-Leu-Met-Glu-Lys-Glu-Leu (Ac-FAEKFKEAVKDYFAKFWDGSSSGGELKVLMEKEL) [R8, targeted peptide with bridge Gly-Ser-Ser-Ser-Gly-Gly; tested as modifier of DiI-labeled nano complex] | good effect on uptake

Substance | fluorescence intensity of nano complexes bound on cerebral vessels (bridge structure peptide screen) [1] | uptake of nano complex by cerebrovascular endothelial cells (bridge structure peptide screen) [2]
AC-Phe-Ala-Glu-Lys-Phe-Lys-Glu-Ala-Val-Lys-Asp-Tyr-Phe-Ala-Lys-Phe-Trp-Asp-Gly-Ser-Gly-Glu-Leu-Lys-Val-Leu-Met-Glu-Lys-Glu-Leu (Ac-FAEKFKEAVKDYFAKFWDGSGELKVLMEKEL) [R4, targeted peptide with bridge Gly-Ser-Gly; tested as modifier of DiI-labeled nano complex] | dominant targeted peptides; also recorded: optimal targeted peptide | good effect on uptake; also recorded: better uptake; also recorded: best uptake
